In patent publication US20090062267A1, “L-ALANINE DERIVATIVES AS a5beta1 ANTAGONISTS” (ASTRAZENECA AB, priority 2007, published 2009) one finds IC50 data, which are given here for 28 molecules.

The target of the assay is recombinant human α5β1 (Homo sapiens, UniProt P05556+P08648). In words: In Vitro Binding Assay (a): inhibition of binding of α5β1 integrin to a fragment of human fibronectin (Fn9-10), Origen electrochemiluminescence. The conditions noted are these: geometric mean where tested more than once. The text has this:
The assay determined the ability of compounds to inhibit binding of α5β1 integrin to a cognate ligand, a fragment of human fibronectin. The assay used Origen technology (IGEN International) to measure the compound activity. Briefly, α5β1 integrin was coated onto epoxy-paramagnetic beads (Dynal Biotech UK, Bromborough, Wirral, CH62 3QL, UK, Catalogue No 140.11) and biotinylated-fibronectin ligand was coupled to strepatividin labeled Tag-NHS-Ester (BioVeris Corporation, Witney, Oxfordshire, OX28 4GE, UK, Catalogue No 110034). The ruthenium-labeled tag emits an electrochemiluminescence signal upon stimulation which is detected by the Origen reader. Thus, interaction of integrin and ligand causes association of bead and tag, and the resulting electrochemiluminescence signal reflects the level of integrin interaction with fibronectin.
20 μg of recombinant human α5β1 was coated onto 4×10(7) epoxy-paramagnetic beads according to manufacturers instructions at 4° C. for 24 hours. Integrin coating and corresponding activity was subsequently measured for each batch but typically, 25 ng of coated protein was used per assay well.
A DNA fragment encoding the domains 9-10 (amino-acids 1325-1509) of human fibronectin (Swiss-Prot Accession No. P02751) was isolated from cDNA libraries using standard molecular biology and PCR cloning techniques. The cDNA fragment was sub-cloned into a pT73.3 expression vector containing a GST-epitope tag (developed at AstraZeneca; Bagnall et al., Protein Expression and Purification, 2003, 27: 1-11). Following expression in E. coli, the expressed protein, termed Fn9-10, was purified using the GST-tag using standard purification techniques. The recombinant Fn9-10 was subsequently biotinylated using a EZ-link Sulfo-NHS-LC-Biotinylation kit (Perbio Science UK Ltd., Cramlington, Northumberland, NE23 1WA, UK, Catalogue No. 21335) and made to give a final concentration of approximately 1 mg/ml. Tag-NHS-Ester was labeled with streptavidin by incubation at room temperature following manufacturers instructions and buffer-exchanged into PBS to give a concentration of 0.5 mg/ml. Immediately prior to the assay, biotinylated-Fn9-10 and Streptavidin-labeled Tag were diluted in Assay Buffer to give a final concentrations of 0.6 ug/ml and 1.5 ug/ml respectively. The Fn9-10 and Tag solutions were then mixed together in equal volumes and incubated on ice for at least 30 minutes prior to the assay.
Aliquots (20 μl) of each compound dilution were placed into each well of a 384-well round bottomed polypropylene plate (Matrix Technologies, Wilmslow, Cheshire, SK9 3LP, Catalogue No. 4340 384).
For the assay, 25 ng (20 ul) of a5b1-bead suspension and 40 μl of the Fn9-10/Tag pre-incubated solution were added to each well containing 20 μl of compound or control solution. Assay plates were then incubated at room temperature for a minimum of 6 hours before being analysed on an Origen plate reader. The minimum value was subtracted from all values, and the signal was plotted against compound concentration to generate IC50 data.
The data in the above table was generated in an assay substantially as described above in relation to Binding Assay (a). Some of the compounds shown in the table were tested more than once in the assay. For those compounds the IC50 value shown is the geometric mean of the measured IC50 values.

SMILES strings stand for the structures. A value given as a limit tells only on which side of the number the result lay.

Sequence of recombinant human α5β1 (P08648 42-1049): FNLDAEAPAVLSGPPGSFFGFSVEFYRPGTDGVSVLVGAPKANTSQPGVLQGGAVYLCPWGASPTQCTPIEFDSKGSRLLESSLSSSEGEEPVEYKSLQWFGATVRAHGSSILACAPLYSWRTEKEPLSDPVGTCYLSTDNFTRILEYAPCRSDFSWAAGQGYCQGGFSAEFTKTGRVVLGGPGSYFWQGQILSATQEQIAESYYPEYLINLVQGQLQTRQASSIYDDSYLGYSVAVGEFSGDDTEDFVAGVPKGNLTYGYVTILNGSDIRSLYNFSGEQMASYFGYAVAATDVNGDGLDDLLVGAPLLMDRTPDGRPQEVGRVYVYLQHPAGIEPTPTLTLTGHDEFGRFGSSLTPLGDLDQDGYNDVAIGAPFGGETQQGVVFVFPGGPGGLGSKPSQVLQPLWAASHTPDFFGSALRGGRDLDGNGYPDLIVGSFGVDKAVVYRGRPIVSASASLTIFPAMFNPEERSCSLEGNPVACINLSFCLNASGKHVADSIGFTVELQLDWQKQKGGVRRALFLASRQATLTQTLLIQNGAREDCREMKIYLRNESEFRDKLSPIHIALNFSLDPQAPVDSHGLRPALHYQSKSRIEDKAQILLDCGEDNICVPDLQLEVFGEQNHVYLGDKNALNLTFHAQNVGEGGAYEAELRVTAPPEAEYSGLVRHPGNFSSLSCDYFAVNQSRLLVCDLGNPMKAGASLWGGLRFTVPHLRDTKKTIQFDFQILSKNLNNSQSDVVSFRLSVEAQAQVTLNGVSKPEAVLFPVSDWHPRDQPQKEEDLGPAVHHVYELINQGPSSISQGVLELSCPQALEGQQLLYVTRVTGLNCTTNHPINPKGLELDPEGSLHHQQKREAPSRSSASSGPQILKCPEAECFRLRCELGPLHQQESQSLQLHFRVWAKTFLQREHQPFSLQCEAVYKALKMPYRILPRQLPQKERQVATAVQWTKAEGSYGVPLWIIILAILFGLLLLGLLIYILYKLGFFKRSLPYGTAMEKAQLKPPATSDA
Sequence of recombinant human α5β1 (P05556 21-798): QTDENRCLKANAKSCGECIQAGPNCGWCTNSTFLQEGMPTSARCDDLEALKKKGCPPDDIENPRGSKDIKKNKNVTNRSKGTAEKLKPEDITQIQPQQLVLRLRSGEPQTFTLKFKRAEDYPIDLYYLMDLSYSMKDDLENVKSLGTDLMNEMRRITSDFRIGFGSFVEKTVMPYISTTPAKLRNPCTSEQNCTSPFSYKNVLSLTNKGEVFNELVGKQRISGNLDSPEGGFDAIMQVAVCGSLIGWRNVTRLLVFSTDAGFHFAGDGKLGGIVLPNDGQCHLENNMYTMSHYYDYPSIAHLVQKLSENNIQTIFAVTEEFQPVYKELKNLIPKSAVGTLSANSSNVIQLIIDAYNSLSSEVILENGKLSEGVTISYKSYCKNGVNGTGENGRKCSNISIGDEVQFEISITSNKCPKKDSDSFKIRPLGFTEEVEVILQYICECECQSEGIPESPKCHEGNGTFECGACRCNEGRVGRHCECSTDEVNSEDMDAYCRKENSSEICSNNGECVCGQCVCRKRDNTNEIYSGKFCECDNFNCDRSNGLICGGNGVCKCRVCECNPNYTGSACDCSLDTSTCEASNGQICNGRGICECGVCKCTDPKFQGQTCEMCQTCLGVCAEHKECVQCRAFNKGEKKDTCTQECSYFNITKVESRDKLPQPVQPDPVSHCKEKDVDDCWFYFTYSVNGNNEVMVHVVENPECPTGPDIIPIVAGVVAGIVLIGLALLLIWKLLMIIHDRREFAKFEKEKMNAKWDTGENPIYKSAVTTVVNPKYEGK

Take `CNc1cccc(CCOc2ccc(C[C@H](NC(=O)c3cnccc3C)C(=O)O)cc2)n1` [Example 1.10, O-{2-[6-(methylamino)pyridin-2-yl]ethyl}-N-[(4-methylpyridin-3-yl)carbonyl]-L-tyrosine]: the IC50 stood at 23 nM.

Take `CNc1cccc(CCOc2ccc(C[C@H](NC(=O)c3scnc3C)C(=O)O)cc2)n1` [Example 1.16, O-{2-[6-(methylamino)pyridin-2-yl]ethyl}-N-[(4-methyl-1,3-thiazol-5-yl)carbonyl]-L-tyrosine]: the IC50 was 24 nM.

On to `CNc1cccc(CCOc2ccc(C[C@H](NC(=O)c3sc(C)nc3C)C(=O)O)cc2)n1` [Example 1.5, N-[(2,4-dimethyl-1,3-thiazol-5-yl)carbonyl]-O-{2-[6-(methylamino)pyridin-2-yl]ethyl}-L-tyrosine], for which the IC50 was 41 nM.

Turning to `CNc1cccc(CCOc2ccc(C[C@H](NC(=O)c3cc(C)cs3)C(=O)O)cc2)n1` [Example 1.27, O-{2-[6-(methylamino)pyridin-2-yl]ethyl}-N-[(4-methyl-2-thienyl)carbonyl]-L-tyrosine], the IC50 is 50 nM.

Take `CNc1cccc(CCOc2ccc(C[C@H](NC(=O)c3ncccc3C)C(=O)O)cc2)n1` [Example 2.7, O-{2-[6-(methylamino)pyridin-2-yl]ethyl}-N-[(3-methylpyridin-2-yl)carbonyl]-L-tyrosine]: the IC50 was 131 nM.

`CNc1cccc(CCOc2ccc(C[C@H](NC(=O)c3c(Cl)cncc3Cl)C(=O)O)cc2)n1` [Example 1.19, N-(3,5-dichloroisonicotinoyl)-O-{2-[6-(methylamino)pyridin-2-yl]ethyl}-L-tyrosine]: the 50% inhibitory concentration (IC50) was determined as 1 nM.

Turning to `CNc1cccc(CCOc2ccc(C[C@H](NC(=O)c3cccnc3C)C(=O)O)cc2)n1` [Example 2.6, O-{2-[6-(methylamino)pyridin-2-yl]ethyl}-N-[(2-methylpyridin-3-yl)carbonyl]-L-tyrosine], the IC50 came out at 34 nM.

For `CNc1cccc(CCOc2ccc(C[C@H](NC(=O)c3occc3C)C(=O)O)cc2)n1` [Example 1.6, O-{2-[6-(methylamino)pyridin-2-yl]ethyl}-N-(3-methyl-2-furoyl)-L-tyrosine], the IC50 was 151 nM.

On to `CNc1cccc(CCOc2ccc(C[C@H](NC(=O)c3nc(Cl)ccc3Cl)C(=O)O)cc2)n1` [Example 1.22, N-[(3,6-dichloropyridin-2-yl)carbonyl]-O-{2-[6-(methylamino)pyridin-2-yl]ethyl}-L-tyrosine], for which the concentration for half-maximal inhibition (IC50) was 34 nM.

For the molecule `CCc1sccc1C(=O)N[C@@H](Cc1ccc(OCCc2ccc3c(n2)NCCC3)cc1)C(=O)O` [Example 5.6, N-[(2-ethylthiophen-3-yl)carbonyl]-O-[2-(5,6,7,8-tetrahydro-1,8-naphthyridin-2-yl)ethyl]-L-tyrosine], the IC50 is 1 nM.

Consider `O=C(N[C@@H](Cc1ccc(OCCc2ccc3c(n2)NCCC3)nc1)C(=O)O)c1sccc1Cl` [Example 9, N-[(3-chlorothiophen-2-yl)carbonyl]-3-{6-[2-(5,6,7,8-tetrahydro-1,8-naphthyridin-2-yl)ethoxy]pyridin-3-yl}-L-alanine], for which the IC50 worked out at 7 nM.

For the molecule `CNc1cccc(CCOc2ccc(C[C@H](NC(=O)c3c(Cl)c4ccccc4n3C)C(=O)O)cc2)n1` [Example 1.26, N-[(3-chloro-1-methyl-1H-indol-2-yl)carbonyl]-O-{2-[6-(methylamino)pyridin-2-yl]ethyl}-L-tyrosine], the half-inhibitory concentration (IC50) was found to be 111 nM.

For `COc1cscc1C(=O)N[C@@H](Cc1ccc(OCCc2ccc3c(n2)NCCC3)cc1)C(=O)O` [Example 5.1, N-[(4-methoxythiophen-3-yl)carbonyl]-O-[2-(5,6,7,8-tetrahydro-1,8-naphthyridin-2-yl)ethyl]-L-tyrosine], the IC50 is 42 nM.

As for `CNc1cccc(CCOc2ccc(C[C@H](NC(=O)c3c[nH]nc3C)C(=O)O)cc2)n1` [Example 1.15, O-{2-[6-(methylamino)pyridin-2-yl]ethyl}-N-[(3-methyl-1H-pyrazol-4-yl)carbonyl]-L-tyrosine], the half-inhibitory concentration (IC50) amounted to 129 nM.

Regarding `CNc1cccc(CCOc2ccc(C[C@H](NC(=O)c3ccc(C)s3)C(=O)O)cc2)n1` [Example 1.3, O-{2-[6-(methylamino)pyridin-2-yl]ethyl}-N-[(5-methyl-2-thienyl)carbonyl]-L-tyrosine], the half-inhibitory concentration (IC50) came to 229 nM.

Regarding `CNc1cccc(CCOc2ccc(C[C@H](NC(=O)c3ncc(Cl)cc3Cl)C(=O)O)cc2)n1` [Example 1.24, N-[(3,5-dichloropyridin-2-yl)carbonyl]-O-{2-[6-(methylamino)pyridin-2-yl]ethyl}-L-tyrosine], the half-maximal inhibitory concentration (IC50) is 35 nM.

For `Cc1noc(C)c1C(=O)N[C@@H](Cc1ccc(CCCc2ccc3c(n2)NCCC3)cc1)C(=O)O` [Example 5.4, N-[(3,5-dimethylisoxazol-4-yl)carbonyl]-4-[3-(5,6,7,8-tetrahydro-1,8-naphthyridin-2-yl)propyl]-L-phenylalanine], the concentration for half-maximal inhibition (IC50) is 2.2 nM.

For `CNc1cccc(CCOc2ccc(C[C@H](NC(=O)c3sccc3C)C(=O)O)cc2)n1` [Example 1.8, O-{2-[6-(methylamino)pyridin-2-yl]ethyl}-N-[(3-methyl-2-thienyl)carbonyl]-L-tyrosine], the half-inhibitory concentration (IC50) turned out to be 19 nM.

For the molecule `O=C(N[C@@H](Cc1ccc(OCCc2ccc3c(n2)NCCO3)cc1)C(=O)O)c1c(Cl)cncc1Cl` [Example 4.1, N-[(3,5-dichloropyridin-4-yl)carbonyl]-O-[2-(3,4-dihydro-2H-pyrido[3,2-b][1,4]oxazin-6-yl)ethyl]-L-tyrosine], the 50% inhibitory concentration (IC50) was under 1 nM.

In the case of `Cc1cnccc1C(=O)N[C@@H](Cc1ccc(OCCc2ccc3c(n2)NCCO3)cc1)C(=O)O` [Example 4.5, O-[2-(3,4-dihydro-2H-pyrido[3,2-b][1,4]oxazin-6-yl)ethyl]-N-[(3-methylpyridin-4-yl)carbonyl]-L-tyrosine], the half-maximal inhibitory concentration (IC50) came out at 4 nM.

Regarding `CCn1nc(C)cc1C(=O)N[C@@H](Cc1ccc(OCCc2cccc(NC)n2)cc1)C(=O)O` [Example 1.7, N-[(1-ethyl-3-methyl-1H-pyrazol-5-yl)carbonyl]-O-{2-[6-(methylamino)pyridin-2-yl]ethyl}-L-tyrosine], the IC50 was 73 nM.

For the molecule `CNc1cccc(CCOc2ccc(C[C@H](NC(=O)c3ccncc3C)C(=O)O)cc2)n1` [Example 1.21, O-{2-[6-(methylamino)pyridin-2-yl]ethyl}-N-(3-methylisonicotinoyl)-L-tyrosine], the half-maximal inhibitory concentration (IC50) was 10 nM.

Turning to `CNc1cccc(CCOc2ccc(C[C@H](NC(=O)c3sccc3Cl)C(=O)O)nc2)n1` [Example 7, N-[(3-chlorothiophen-2-yl)carbonyl]-3-(5-{2-[6-(methylamino)pyridin-2-yl]ethoxy}pyridin-2-yl)-L-alanine], the IC50 is 21 nM.

For `Cn1c(C(=O)N[C@@H](Cc2ccc(OCCc3ccc4c(n3)NCCC4)cc2)C(=O)O)c(Cl)c2ccccc21` [Example 5.3, N-[(3-chloro-1-methyl-1H-indol-2-yl)carbonyl]-O-[2-(5,6,7,8-tetrahydro-1,8-naphthyridin-2-yl)ethyl]-L-tyrosine], the IC50 was determined as 94 nM.

Consider `CNc1cccc(CCOc2ccc(C[C@H](NC(=O)c3sccc3Cl)C(=O)O)cc2)n1` [Example 1.1, N-[(3-chloro-2-thienyl)carbonyl]-O-{2-[6-(methylamino)pyridin-2-yl]ethyl}-L-tyrosine], for which the IC50 amounted to 12 nM.

On to `CNc1cccc(CCOc2ccc(C[C@H](NC(=O)c3oc4ccccc4c3C)C(=O)O)cc2)n1` [Example 2.5, O-{2-[6-(methylamino)pyridin-2-yl]ethyl}-N-[(3-methyl-1-benzofuran-2-yl)carbonyl]-L-tyrosine], for which the IC50 is 80 nM.

With `CNc1cccc(CCOc2ccc(C[C@H](NC(=O)c3csc(C(C)C)c3)C(=O)O)cc2)n1` [Example 1.30, N-[(5-isopropyl-3-thienyl)carbonyl]-O-{2-[6-(methylamino)pyridin-2-yl]ethyl}-L-tyrosine], the half-maximal inhibitory concentration (IC50) worked out at 132 nM.

On to `CCSc1ncccc1C(=O)N[C@@H](Cc1ccc(OCCc2cccc(NC)n2)cc1)C(=O)O` [Example 2.3, N-{[2-(ethylthio)pyridin-3-yl]carbonyl}-O-{2-[6-(methylamino)pyridin-2-yl]ethyl}-L-tyrosine], for which the IC50 was 31 nM.

What is called IC50 is the concentration at which inhibition is half-maximal.
